Source: patent US4439426A, “Semisynthetic macrolidic antibiotics, intermediate compounds for their preparation and related pharmaceutical compositions containing them” (priority 1981, dated 1984)
In brackets after ≈: the same amount, converted by molar mass.

Key:
[1] = Stability in acidic environment at 25° C. (half-life of initial microbiological activity); assay type: physicochemical; conditions: aqueous solution
Description: Stability in acidic environnment at 25° C. of the novel
Note: t 1/2 represents the time for reducing to one half the initial powe
of the antibiotic determined by microbiological method through diffusion
on a plate using the test stock Microccocus luteus (Sarcina lutea) ATCC

[2] = test system: Clostridium perfrigens ATCC 3624 LRP 206; test: microbe, parasite or virus in culture; assay type: cell-based; conditions: ATCC3624, solid medium, anaerobic, read-out: Minimum inhibiting concentration
Source text: (§1) the bacteriostatic power, expressed as the minimum inhibiting concentration (MIC) against both aerobic and anaerobic, Gram positive and Gram negative, bacterial stocks: the related results are reported in the tables 2 and 3.

Salmonella typhy LRP 8 = test: microbe, parasite or virus in culture; assay type: cell-based; conditions: LRP8, solid medium, read-out: Minimum inhibiting concentration
Source text: as §1

[3] = test system: Streptococcus pyogenes ATCC 8668 LRP 34; test: Minimum bactericidal concentration (MBC); assay type: cell-based
Source text: (§2) the bacterial power, expressed as the minimum bactericidal power (MBC) against some Gram positive aerobic stocks (table 5).

[4] = test system: Streptococcus faecalis subs. zymogenes LRP 61; test: Minimum bactericidal concentration (MBC); assay type: cell-based
Source text: as §2

[5] = test system: Staphylococcus aureus ATCC 6538 P LRP 39; test: Minimum bactericidal concentration (MBC); assay type: cell-based
Source text: as §2

[6] = test system: Corynebacterium diphteriae LRP 24; test: Minimum bactericidal concentration (MBC); assay type: cell-based
Source text: as §2

[7] = test system: Streptococcus pneumoniae ATCC 6303 LRP 35; test: Minimum bactericidal concentration (MBC); assay type: cell-based
Source text: as §2

Shigella sonnei LRP 5 = test: Bacteriostatic power in solid medium (MIC); assay type: cell-based; conditions: LRP5, read-out: Minimum inhibiting concentration
Source text: as §1

Escherichia coli LRP 50 = test: Bacteriostatic power in solid medium (MIC); assay type: cell-based; conditions: Escherichia coli, LRP50; solid medium; read-out: Minimum inhibiting concentration
Source text: as §1

[8] = test system: Staphylococcus aureus ATCC 14154 LRP 78; test: Bacteriostatic power in solid medium (MIC); assay type: cell-based; conditions: Staphylococcus aureus, ATCC14154; solid medium; Erythromycin resistant; read-out: Minimum inhibiting concentration
Source text: as §1

[9] = test system: Streptococcus pyogenes ATCC 8668 LRP 197; test: Bacteriostatic power in solid medium (MIC); assay type: cell-based; conditions: Streptococcus pyogenes, ATCC8668; solid medium; read-out: Minimum inhibiting concentration
Source text: as §1

[10] = test system: Proteus vulgaris ATCC 6380 LRP 13; test: Bacteriostatic power in solid medium (MIC); assay type: cell-based; conditions: Proteus vulgaris, ATCC6380; solid medium; read-out: Minimum inhibiting concentration
Source text: as §1

[11] = test system: Micrococcus luteus ATCC 15957 LRP 193; test: Bacteriostatic power in solid medium (MIC); assay type: cell-based; conditions: Micrococcus luteus, ATCC15957; solid medium; Erythromycin resistant; read-out: Minimum inhibiting concentration
Source text: as §1

[12] = test system: Streptococcus pneumoniae ATCC 6303 LRP 53; test: Bacteriostatic power in solid medium (MIC); assay type: cell-based; conditions: Streptococcus pneumoniae, ATCC6303; solid medium; read-out: Minimum inhibiting concentration
Source text: as §1

[13] = test system: Micrococcus luteus ATCC 9341 LRP 6; test: Bacteriostatic power in solid medium (MIC); assay type: cell-based; conditions: Micrococcus luteus, ATCC9341; solid medium; read-out: Minimum inhibiting concentration
Source text: as §1

[14] = test system: Staphylococcus aureus ATCC 6538P LRP 14; test: Bacteriostatic power in solid medium (MIC); assay type: cell-based; conditions: Staphylococcus aureus, ATCC6538P; solid medium; Penycilline resistant; read-out: Minimum inhibiting concentration
Source text: as §1

[15] = test system: Klelsiella pneumoniae LRP 54; test: Bacteriostatic power in solid medium (MIC); assay type: cell-based; conditions: solid medium; read-out: Minimum inhibiting concentration
Source text: as §1

[16] = test system: Pseudomonas aeruginosa LRP 9; test: Bacteriostatic power in solid medium (MIC); assay type: cell-based; conditions: Pseudomonas aeruginosa, LRP9; solid medium; read-out: Minimum inhibiting concentration
Source text: as §1

[17] = test system: Bacteroides fragilis ATCC 23745 LRP 205; test: Bacteriostatic power in solid medium (MIC); assay type: cell-based; conditions: Bacteroides fragilis, ATCC23745; solid medium; anaerobic; read-out: Minimum inhibiting concentration
Source text: as §1

[18] = test system: Streptococcus pneumoniae ATCC 6303 LRP 52; test: Bacteriostatic power in solid medium (MIC); assay type: cell-based; conditions: Streptococcus pneumoniae, ATCC6303; solid medium; read-out: Minimum inhibiting concentration
Source text: as §1

[19] = test system: Haemophilus influenzae ATCC 19418 LRP 213; test: Bacteriostatic power in solid medium (MIC); assay type: cell-based; conditions: Haemophilus influenzae, ATCC19418; solid medium; read-out: Minimum inhibiting concentration
Source text: as §1

[20] = test system: Streptococcus pyogenes ATCC 8668 LRP 34; test: Bacteriostatic power in solid medium (MIC); assay type: cell-based; conditions: Streptococcus pyogenes, ATCC8668; solid medium; read-out: Minimum inhibiting concentration
Source text: as §1

[21] = test system: Streptococcus faecalis LRP 7; test: Bacteriostatic power in solid medium (MIC); assay type: cell-based; conditions: Enterococcus faecalis, LRP7; solid medium; read-out: Minimum inhibiting concentration
Source text: as §1

[22] = test system: Fusobacteriumnecrophroum ATCC 27852 LRP 210; test: Bacteriostatic power in solid medium (MIC); assay type: cell-based; conditions: solid medium; anaerobic; read-out: Minimum inhibiting concentration
Source text: as §1

[23] = test system: Acholeplasma laidlawii ATCC 23206 LRP 204; test: Bacteriostatic power in solid medium (MIC); assay type: cell-based; conditions: Acholeplasma laidlawii, ATCC23206; solid medium; read-out: Minimum inhibiting concentration
Source text: as §1

[24] = test system: Neisseria gonorrhoeae ATCC 19424 LRP 214; test: Bacteriostatic power in solid medium (MIC); assay type: cell-based; conditions: Neisseria gonorrhoeae, ATCC19424; solid medium; read-out: Minimum inhibiting concentration
Source text: as §1

[25] = test system: Corynebacterium diphteriae LRP 24; test: Bacteriostatic power in solid medium (MIC); assay type: cell-based; conditions: Corynebacterium, LRP24; solid medium; read-out: Minimum inhibiting concentration
Source text: as §1

[26] = test system: Mycoplasma hominis I ATCC 14027 LRP 211; test: Bacteriostatic power in solid medium (MIC); assay type: cell-based; conditions: Metamycoplasma hominis, ATCC14027; solid medium; read-out: Minimum inhibiting concentration
Source text: as §1

[27] = test system: Streptococcus faecalis subsp. zymogenes ATCC 12958 LRP 61; test: Bacteriostatic power in solid medium (MIC); assay type: cell-based; conditions: Enterococcus faecalis, ATCC12958; solid medium; read-out: Minimum inhibiting concentration
Source text: as §1

[28] = test system: Staphylococcus aureus ATCC 6538P LRP 39; test: Bacteriostatic power in solid medium (MIC); assay type: cell-based; conditions: Staphylococcus aureus, ATCC6538P; solid medium; read-out: Minimum inhibiting concentration
Source text: as §1

Bacillus subtilis LRP 25 = test: Bacteriostatic power in solid medium (MIC); assay type: cell-based; conditions: Bacillus subtilis, LRP25; solid medium; read-out: Minimum inhibiting concentration
Source text: as §1

[29] = test system: Streptococcus pneumoniae ATCC 6303 LRP 35; test: Bacteriostatic power in solid medium (MIC); assay type: cell-based; conditions: Streptococcus pneumoniae, ATCC6303; solid medium; read-out: Minimum inhibiting concentration
Source text: as §1

[30] = test system: Streptococcus faecalis subs. zymogenes ATCC 12958 LRP 61; test: Bacteriostatic power in liquid medium (MIC); assay type: cell-based; conditions: Enterococcus faecalis, ATCC12958; liquid medium; read-out: Minimum inhibiting concentration
Source text: as §1

[31] = test system: Streptococcus pyogenes ATCC 8668 LRP 34; test: Bacteriostatic power in liquid medium (MIC); assay type: cell-based; conditions: Streptococcus pyogenes, ATCC8668; liquid medium; read-out: Minimum inhibiting concentration
Source text: as §1

[32] = test system: Staphylococcus aureus ATCC 6538 P LRP 39; test: Bacteriostatic power in liquid medium (MIC); assay type: cell-based; conditions: Staphylococcus aureus, ATCC6538; liquid medium; read-out: Minimum inhibiting concentration
Source text: as §1

[33] = test system: Corynebacterium diphteriae LRP 24; test: Bacteriostatic power in liquid medium (MIC); assay type: cell-based; conditions: Corynebacterium, LRP24; liquid medium; read-out: Minimum inhibiting concentration
Source text: as §1

[34] = test system: Streptococcus pneumoniae ATCC 6303 LRP 35; test: Bacteriostatic power in liquid medium (MIC); assay type: cell-based; conditions: Streptococcus pneumoniae, ATCC6303; liquid medium; read-out: Minimum inhibiting concentration
Source text: as §1

CC[C@H]1OC(=O)[C@H](C)[C@@H](O[C@H]2C[C@@](C)(OC)[C@@H](O)[C@H](C)O2)[C@H](C)[C@@H](O[C@@H]2O[C@H](C)C[C@H](N(C)C)[C@H]2O)[C@](C)(O)C[C@](C)(F)C(=O)[C@H](C)[C@@H](O)[C@H]1C [P-80203, (8S)-8-fluoroerythromycin B]
half-life ([1]; pH 2): 3 h | half-life ([1]; pH 3): 45 h | MIC [2]: 0.39 µg/mL (≈ 0.53 µM) | MIC (Salmonella typhy LRP 8): 25 µg/mL (≈ 34 µM) | MBC/MIC [3]: 8 | MBC ([3]; Streptococcus pyogenes, ATCC8668, read-out: Minimum bactericidal concentration (MBC)): 0.195 µg/mL (≈ 0.265 µM) | MBC/MIC [4]: 8 | MBC ([4]; Enterococcus faecalis, read-out: Minimum bactericidal concentration (MBC)): 3.12 µg/mL (≈ 4.24 µM) | MBC/MIC [5]: 32 | MBC ([5]; Staphylococcus aureus, ATCC6538, read-out: Minimum bactericidal concentration (MBC)): 3.12 µg/mL (≈ 4.24 µM) | MBC/MIC [6]: 4 | MBC ([6]; Corynebacterium, LRP24, read-out: Minimum bactericidal concentration (MBC)): 0.049 µg/mL (≈ 0.0666 µM) | MBC/MIC [7]: 1 | MBC ([7]; Streptococcus pneumoniae, ATCC6303, read-out: Minimum bactericidal concentration (MBC)): 0.049 µg/mL (≈ 0.0666 µM) | MIC (Shigella sonnei LRP 5): 25 µg/mL (≈ 34 µM) | MIC (Escherichia coli LRP 50): 25 µg/mL (≈ 34 µM) | MIC [8]: 25 µg/mL (≈ 34 µM) | MIC [9]: 0.049 µg/mL (≈ 0.0666 µM) | MIC [10]: 25 µg/mL (≈ 34 µM) | MIC [11]: 25 µg/mL (≈ 34 µM) | MIC [12]: 0.024 µg/mL (≈ 0.0326 µM) | MIC [13]: 0.012 µg/mL (≈ 0.0163 µM) | MIC [14]: 0.097 µg/mL (≈ 0.132 µM) | MIC [15]: 25 µg/mL (≈ 34 µM) | MIC [16]: 25 µg/mL (≈ 34 µM) | MIC [17]: 0.195 µg/mL (≈ 0.265 µM) | MIC [18]: 0.024 µg/mL (≈ 0.0326 µM) | MIC [19]: 6.25 µg/mL (≈ 8.49 µM) | MIC [20]: 0.024 µg/mL (≈ 0.0326 µM) | MIC [21]: 0.195 µg/mL (≈ 0.265 µM) | MIC [22]: 3.12 µg/mL (≈ 4.24 µM) | MIC [23]: 0.195 µg/mL (≈ 0.265 µM) | MIC [24]: 0.097 µg/mL (≈ 0.132 µM) | MIC [25]: 0.006 µg/mL (≈ 0.00815 µM) | MIC [26]: 25 µg/mL (≈ 34 µM) | MIC [27]: 0.195 µg/mL (≈ 0.265 µM) | MIC [28]: 0.097 µg/mL (≈ 0.132 µM) | MIC (Bacillus subtilis LRP 25): 0.049 µg/mL (≈ 0.0666 µM) | MIC [29]: 0.049 µg/mL (≈ 0.0666 µM) | MIC [30]: 0.39 µg/mL (≈ 0.53 µM) | MIC [31]: 0.024 µg/mL (≈ 0.0326 µM) | MIC [32]: 0.097 µg/mL (≈ 0.132 µM) | MIC [33]: 0.012 µg/mL (≈ 0.0163 µM) | MIC [34]: 0.049 µg/mL (≈ 0.0666 µM)
